The results in this text go back to patent US5693324A, “Tris(isonitrile) copper(I) sulfates for preparing radionuclide complexes” (The DuPont Merck Pharmaceutical Company, priority 1995, dated 1997).

The data set can be described thus: water solubility of tris(isonitrile)copper(I) complexes. It counts as physicochemical.

As to `O=S(=O)([O-])[O-].[C-]#[N+]CC(C)(C)OC.[C-]#[N+]CC(C)(C)OC.[C-]#[N+]CC(C)(C)OC.[C-]#[N+]CC(C)(C)OC.[C-]#[N+]CC(C)(C)OC.[C-]#[N+]CC(C)(C)OC.[Cu+].[Cu+]` [[Cu(MIBI)3]2 [SO4], tris(1-isocyano-2-methoxy-2-methylpropane)copper(I) sulfate], the “water solubility, relative” value (compared with the tris(isonitrile)copper(I) adducts of U.S. Pat. No. 4,885,100) is “more soluble”. The water solubility (sulfate complexes of the present invention, in water) is listed as over 100 mg/mL.
